According to US5324715A, “Protein for inhibiting collagen-stimulated platelet aggregation” (Merck & Co., Inc., priority 1993, dated 1994):

Legend:
washed human platelets = test: Collagen-stimulated platelet aggregation (aggregometer); type: cell-based; conditions: 0.25 mM arachidonic acid added later; 2 μg/ml collagen; inhibitor of Examples 1 and 2 present
Procedure: Human platelets are washed in modified Tyrode's buffer with no Ca^++ with 0.2 mg/ml fibrinogen. The washed platelets are incubated at 37° C. for 2 minutes with the sample to be tested. Collagen at 1 or 2 μg/ml final concentration is added and platelet aggregation in an aggregometer is monitored. Inhibitory activity is defined as a decrease in the rate and/or extent of platelet aggregation.
The IC50 for this inhibition was 45 nM. Inhibition of collagen stimulation was overcome by later addition of 0.25 mM arachidonic acid.

Molecule: CCCCC/C=C\C/C=C\C/C=C\C/C=C\CCCC(=O)O [arachidonic acid]
- Inhibition of collagen stimulation of platelet aggregation (by the Haementeria officinalis inhibitor) overcome by later addition (washed human platelets): overcome

B1: collagen-stimulated platelet aggregation inhibitor isolated from Haementeria officinalis salivary gland extract (leech antiplatelet protein, LAPP) (protein)
chain: QDEDAGGAGDETSEGEDTTGSDETPSTGGGGDGGNEETITAGNGDCWSKRPGWKLPDNLLTKTEFTSVDECRKMCEESAVEPSCYILQINTETNECYRNNEGDVTWSSLQYDQPNVVQWHLHACSK
- IC50 of inhibition of collagen-stimulated platelet aggregation (collagen): 45 nM
